The target in test [1] is Beta-3 adrenergic receptor (Homo sapiens, UniProt P13945).
The target of test [2] is Histamine H2 receptor (Homo sapiens, UniProt P25021).
Test [3] has as its target T1, Alpha-2B adrenergic receptor (Homo sapiens, UniProt P18089).
T1 sequence (P18089 whole entry): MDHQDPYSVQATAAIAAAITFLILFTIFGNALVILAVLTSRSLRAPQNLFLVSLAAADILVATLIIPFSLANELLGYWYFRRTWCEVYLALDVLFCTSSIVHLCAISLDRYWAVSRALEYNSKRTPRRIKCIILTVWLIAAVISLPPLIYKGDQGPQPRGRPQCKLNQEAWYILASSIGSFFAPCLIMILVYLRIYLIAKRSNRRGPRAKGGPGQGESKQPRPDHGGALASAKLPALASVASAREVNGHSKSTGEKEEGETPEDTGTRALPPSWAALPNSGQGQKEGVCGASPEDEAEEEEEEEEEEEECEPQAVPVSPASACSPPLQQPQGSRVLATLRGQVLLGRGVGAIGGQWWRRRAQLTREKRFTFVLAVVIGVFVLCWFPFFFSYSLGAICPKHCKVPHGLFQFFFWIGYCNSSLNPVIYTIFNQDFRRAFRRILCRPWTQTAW

Test [4] addresses T2, Muscarinic acetylcholine receptor M1 (Homo sapiens, UniProt P11229).
T2 sequence (P11229 whole entry): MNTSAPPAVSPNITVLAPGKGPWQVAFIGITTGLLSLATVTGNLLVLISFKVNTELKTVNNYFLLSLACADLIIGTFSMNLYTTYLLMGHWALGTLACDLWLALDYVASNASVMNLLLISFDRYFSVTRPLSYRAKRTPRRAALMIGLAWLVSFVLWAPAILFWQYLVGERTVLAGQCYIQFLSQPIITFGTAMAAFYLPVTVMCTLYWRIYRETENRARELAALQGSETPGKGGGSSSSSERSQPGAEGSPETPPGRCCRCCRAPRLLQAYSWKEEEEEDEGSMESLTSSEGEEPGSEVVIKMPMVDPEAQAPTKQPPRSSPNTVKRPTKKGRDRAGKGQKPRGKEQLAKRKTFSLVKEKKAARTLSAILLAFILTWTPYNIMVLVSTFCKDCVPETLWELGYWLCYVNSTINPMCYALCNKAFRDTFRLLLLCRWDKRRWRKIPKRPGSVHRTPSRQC
Type of test: functional.

Test [5] has as its target Gamma-aminobutyric acid receptor subunit alpha-1/alpha-2/beta-2/gamma-2 (Homo sapiens, UniProt P14867+P18507+P47869+P47870). Type of test: functional, cell-based.
Test [6] addresses T3, Estrogen receptor (Homo sapiens, UniProt P03372).
T3 sequence (P03372 whole entry): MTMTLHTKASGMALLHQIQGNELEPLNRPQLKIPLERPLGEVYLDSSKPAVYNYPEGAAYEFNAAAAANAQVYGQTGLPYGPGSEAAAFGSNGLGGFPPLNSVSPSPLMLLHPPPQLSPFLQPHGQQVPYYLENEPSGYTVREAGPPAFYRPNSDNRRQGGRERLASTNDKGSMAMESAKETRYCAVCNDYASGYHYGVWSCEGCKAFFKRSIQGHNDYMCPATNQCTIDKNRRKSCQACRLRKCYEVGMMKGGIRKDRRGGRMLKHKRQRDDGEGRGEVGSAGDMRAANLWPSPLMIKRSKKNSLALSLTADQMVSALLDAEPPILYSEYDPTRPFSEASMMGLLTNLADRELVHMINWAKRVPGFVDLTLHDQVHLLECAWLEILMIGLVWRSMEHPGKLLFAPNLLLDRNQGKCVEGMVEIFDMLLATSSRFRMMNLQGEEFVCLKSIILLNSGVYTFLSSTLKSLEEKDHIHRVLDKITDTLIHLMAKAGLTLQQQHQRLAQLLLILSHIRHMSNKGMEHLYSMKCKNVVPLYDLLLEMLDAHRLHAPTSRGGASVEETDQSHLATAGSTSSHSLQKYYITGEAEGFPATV

The target in test [7] is Sodium-dependent serotonin transporter (Homo sapiens, UniProt P31645).
Test [8] deals with T4, Progesterone receptor (Homo sapiens, UniProt P06401).
T4 sequence (P06401 whole entry): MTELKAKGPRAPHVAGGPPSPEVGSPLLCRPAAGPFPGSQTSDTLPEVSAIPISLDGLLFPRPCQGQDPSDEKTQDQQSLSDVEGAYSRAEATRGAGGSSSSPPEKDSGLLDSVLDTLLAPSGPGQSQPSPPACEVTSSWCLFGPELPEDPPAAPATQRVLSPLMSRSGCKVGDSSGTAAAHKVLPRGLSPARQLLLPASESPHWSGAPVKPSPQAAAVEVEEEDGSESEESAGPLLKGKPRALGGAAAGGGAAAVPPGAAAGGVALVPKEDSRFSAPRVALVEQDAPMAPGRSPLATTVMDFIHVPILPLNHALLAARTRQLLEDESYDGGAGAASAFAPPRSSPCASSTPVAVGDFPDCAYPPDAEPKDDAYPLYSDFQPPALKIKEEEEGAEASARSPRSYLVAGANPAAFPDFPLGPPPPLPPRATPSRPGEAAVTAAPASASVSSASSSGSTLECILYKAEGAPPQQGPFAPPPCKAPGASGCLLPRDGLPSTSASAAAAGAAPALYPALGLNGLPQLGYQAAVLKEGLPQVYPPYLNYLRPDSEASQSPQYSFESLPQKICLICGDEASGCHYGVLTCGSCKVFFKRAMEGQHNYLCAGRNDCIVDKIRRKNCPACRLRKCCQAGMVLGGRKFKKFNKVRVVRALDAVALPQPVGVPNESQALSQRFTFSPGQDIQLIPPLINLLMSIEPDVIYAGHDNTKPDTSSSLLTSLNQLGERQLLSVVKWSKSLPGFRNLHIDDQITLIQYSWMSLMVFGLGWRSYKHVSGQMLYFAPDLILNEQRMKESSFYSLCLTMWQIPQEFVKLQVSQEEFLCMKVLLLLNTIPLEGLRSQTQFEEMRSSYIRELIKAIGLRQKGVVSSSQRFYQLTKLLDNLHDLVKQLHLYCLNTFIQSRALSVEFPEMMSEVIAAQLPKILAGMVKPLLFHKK

SMILES strings stand for the structures.
Also: assay procedure not described here.

Beta-3 adrenergic receptor, sequence (P13945 whole entry): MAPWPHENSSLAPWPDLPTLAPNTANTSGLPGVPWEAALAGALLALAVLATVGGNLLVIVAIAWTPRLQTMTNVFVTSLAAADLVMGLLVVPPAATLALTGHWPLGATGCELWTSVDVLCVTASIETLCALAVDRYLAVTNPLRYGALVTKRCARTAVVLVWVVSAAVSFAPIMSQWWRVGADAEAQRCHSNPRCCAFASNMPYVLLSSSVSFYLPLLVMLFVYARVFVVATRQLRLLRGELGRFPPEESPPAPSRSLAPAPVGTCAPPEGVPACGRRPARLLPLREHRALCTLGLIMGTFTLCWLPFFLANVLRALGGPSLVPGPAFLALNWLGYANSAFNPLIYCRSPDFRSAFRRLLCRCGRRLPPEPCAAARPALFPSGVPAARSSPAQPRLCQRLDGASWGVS
Histamine H2 receptor, sequence (P25021 whole entry): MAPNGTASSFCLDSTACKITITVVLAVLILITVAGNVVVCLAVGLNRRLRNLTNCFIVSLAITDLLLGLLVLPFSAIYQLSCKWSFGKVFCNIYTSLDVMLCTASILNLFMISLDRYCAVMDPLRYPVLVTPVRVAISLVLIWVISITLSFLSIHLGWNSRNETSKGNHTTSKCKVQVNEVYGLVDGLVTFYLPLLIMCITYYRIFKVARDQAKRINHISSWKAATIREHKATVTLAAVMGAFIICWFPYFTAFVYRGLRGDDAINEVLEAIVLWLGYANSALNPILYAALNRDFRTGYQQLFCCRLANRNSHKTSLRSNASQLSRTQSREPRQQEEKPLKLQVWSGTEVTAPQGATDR
Sodium-dependent serotonin transporter, sequence (P31645 whole entry): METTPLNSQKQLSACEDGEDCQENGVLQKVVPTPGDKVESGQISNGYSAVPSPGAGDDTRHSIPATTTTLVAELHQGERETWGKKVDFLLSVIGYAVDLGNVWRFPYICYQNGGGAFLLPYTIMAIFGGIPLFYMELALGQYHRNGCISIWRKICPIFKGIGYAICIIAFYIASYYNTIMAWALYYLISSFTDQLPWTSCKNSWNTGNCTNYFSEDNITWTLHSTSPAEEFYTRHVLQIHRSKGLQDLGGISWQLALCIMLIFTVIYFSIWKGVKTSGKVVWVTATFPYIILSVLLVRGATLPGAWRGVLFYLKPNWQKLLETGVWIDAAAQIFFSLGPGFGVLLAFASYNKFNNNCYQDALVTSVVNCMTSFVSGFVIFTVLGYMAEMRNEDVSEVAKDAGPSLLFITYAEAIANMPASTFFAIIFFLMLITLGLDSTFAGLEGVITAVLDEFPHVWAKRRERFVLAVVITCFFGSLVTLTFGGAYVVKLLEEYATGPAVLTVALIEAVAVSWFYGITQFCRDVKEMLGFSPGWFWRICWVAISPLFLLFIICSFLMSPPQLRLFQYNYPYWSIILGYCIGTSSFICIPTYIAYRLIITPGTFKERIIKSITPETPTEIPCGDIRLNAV
Gamma-aminobutyric acid receptor subunit alpha-1/alpha-2/beta-2/gamma-2, sequence (P14867 whole entry): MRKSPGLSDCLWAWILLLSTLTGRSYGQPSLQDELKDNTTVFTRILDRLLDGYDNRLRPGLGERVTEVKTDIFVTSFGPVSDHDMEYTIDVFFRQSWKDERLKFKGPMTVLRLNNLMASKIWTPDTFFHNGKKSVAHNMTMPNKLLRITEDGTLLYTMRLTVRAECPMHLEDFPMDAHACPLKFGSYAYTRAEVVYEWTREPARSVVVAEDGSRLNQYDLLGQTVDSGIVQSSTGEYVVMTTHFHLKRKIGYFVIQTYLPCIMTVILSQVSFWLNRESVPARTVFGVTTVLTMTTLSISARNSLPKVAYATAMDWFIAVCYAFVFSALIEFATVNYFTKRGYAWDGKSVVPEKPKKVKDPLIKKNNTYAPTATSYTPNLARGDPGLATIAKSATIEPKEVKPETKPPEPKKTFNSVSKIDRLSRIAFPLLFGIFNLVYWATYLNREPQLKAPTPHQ
Gamma-aminobutyric acid receptor subunit alpha-1/alpha-2/beta-2/gamma-2, sequence (P47870 whole entry): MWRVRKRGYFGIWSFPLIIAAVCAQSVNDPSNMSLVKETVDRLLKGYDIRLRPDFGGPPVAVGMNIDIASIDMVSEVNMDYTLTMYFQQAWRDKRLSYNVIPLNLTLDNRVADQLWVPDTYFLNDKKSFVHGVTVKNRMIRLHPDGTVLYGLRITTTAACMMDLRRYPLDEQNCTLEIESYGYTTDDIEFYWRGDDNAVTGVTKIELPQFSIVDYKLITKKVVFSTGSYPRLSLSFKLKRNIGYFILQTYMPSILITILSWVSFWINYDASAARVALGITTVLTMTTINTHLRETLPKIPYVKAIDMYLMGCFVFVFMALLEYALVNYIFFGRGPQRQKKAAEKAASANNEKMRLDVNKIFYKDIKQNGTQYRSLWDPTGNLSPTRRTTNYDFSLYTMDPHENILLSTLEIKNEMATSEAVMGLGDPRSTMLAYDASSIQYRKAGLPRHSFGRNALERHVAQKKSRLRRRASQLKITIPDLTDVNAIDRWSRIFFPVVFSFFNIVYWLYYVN
Gamma-aminobutyric acid receptor subunit alpha-1/alpha-2/beta-2/gamma-2, sequence (P18507 whole entry): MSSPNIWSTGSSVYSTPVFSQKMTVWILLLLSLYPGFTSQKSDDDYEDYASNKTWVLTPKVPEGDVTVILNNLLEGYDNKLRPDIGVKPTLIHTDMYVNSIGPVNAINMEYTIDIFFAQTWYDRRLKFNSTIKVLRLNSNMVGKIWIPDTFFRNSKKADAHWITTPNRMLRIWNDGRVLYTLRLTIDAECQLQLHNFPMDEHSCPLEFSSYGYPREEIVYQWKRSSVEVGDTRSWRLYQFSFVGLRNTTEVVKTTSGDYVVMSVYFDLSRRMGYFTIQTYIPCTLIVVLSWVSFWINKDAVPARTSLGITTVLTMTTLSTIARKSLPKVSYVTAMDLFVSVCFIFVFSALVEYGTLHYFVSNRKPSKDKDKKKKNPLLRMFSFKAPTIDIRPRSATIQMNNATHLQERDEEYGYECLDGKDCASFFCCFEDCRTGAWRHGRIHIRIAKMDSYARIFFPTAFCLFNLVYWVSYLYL
Gamma-aminobutyric acid receptor subunit alpha-1/alpha-2/beta-2/gamma-2, sequence (P47869 whole entry): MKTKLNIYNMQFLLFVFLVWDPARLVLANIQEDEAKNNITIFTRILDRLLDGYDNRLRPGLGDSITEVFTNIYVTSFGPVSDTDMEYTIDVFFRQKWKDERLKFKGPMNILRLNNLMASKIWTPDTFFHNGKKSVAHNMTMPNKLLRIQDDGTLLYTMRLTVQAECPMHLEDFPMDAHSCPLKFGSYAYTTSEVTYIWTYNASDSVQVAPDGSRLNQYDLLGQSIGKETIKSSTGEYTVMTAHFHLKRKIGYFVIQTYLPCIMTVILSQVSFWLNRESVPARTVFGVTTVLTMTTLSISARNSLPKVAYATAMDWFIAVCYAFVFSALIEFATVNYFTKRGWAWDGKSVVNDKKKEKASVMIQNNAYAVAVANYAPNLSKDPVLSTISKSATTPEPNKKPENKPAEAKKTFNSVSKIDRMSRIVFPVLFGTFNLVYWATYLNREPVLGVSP

On to `CC/C(=C(\c1ccccc1)c1ccc(OCCN(C)C)cc1)c1ccccc1` [TAMOXIFEN], for which the AC50 in test [1] is 6.61 µM; in test [2], 1.75 µM.
In the case of `COc1ccc2c3c1O[C@H]1[C@@H](O)CC[C@H]4[C@@H](C2)N(C)CC[C@@]341` [DIHYDROCODEINE], the AC50 in test [3], in test [4] and in test [5] was above 30 µM each time.
As for `O=C1C(O)=C([C@H]2CC[C@H](c3ccc(Cl)cc3)CC2)C(=O)c2ccccc21` [ATOVAQUONE], the AC50 in test [3], in test [4], in test [6] and in test [7] was above 30 µM each time.
Regarding `Clc1ccccc1C(c1ccccc1)(c1ccccc1)n1ccnc1` [CLOTRIMAZOLE], the AC50 came to 8.78 µM in test [1] and 17.4 µM in test [2].
As for `Cc1c(OCC(F)(F)F)ccnc1C[S+]([O-])c1nc2ccccc2[nH]1` (centres undefined) [LANSOPRAZOLE], the values for the AC50 in test [1], in test [2] and in test [8] were above 30 µM, 8.52 µM and above 30 µM, respectively.
Consider `C[C@H]1COc2c(C3(N)CC3)c(F)cc3c(=O)c(C(=O)O)cn1c23` [PAZUFLOXACIN], for which the AC50 in test [3], in test [4] and in test [7] was above 10 µM throughout.
Take `CC(CC1c2ccccc2CCc2ccccc21)CN(C)C` (centres undefined) [BUTRIPTYLINE]: the values for the AC50 in test [3], in test [4] and in test [5] were 5 µM, 0.23 µM and above 30 µM, respectively.
Consider `Cc1nnc2n1-c1ccc(Cl)cc1C(c1ccccc1Cl)=NC2` [TRIAZOLAM], for which the AC50 is above 10 µM in test [3], above 10 µM in test [4], above 30 µM in test [8] and above 30 µM in test [7].
On to `CC1(C)CCC(CN2CCN(c3ccc(C(=O)NS(=O)(=O)c4ccc(NCC5CCOCC5)c([N+](=O)[O-])c4)c(Oc4cnc5[nH]ccc5c4)c3)CC2)=C(c2ccc(Cl)cc2)C1` [VENETOCLAX], for which the AC50 in test [4] and in test [7] was above 30 µM in each case.
As for `NC(=O)OCC(COC(N)=O)c1ccccc1` [FELBAMATE], the AC50 in test [3], in test [4], in test [6] and in test [7] was above 10 µM each time.
For the compound `COc1ccc(CCNCC(O)COc2cccc(C)c2)cc1OC` (centres undefined) [BEVANTOLOL], the AC50 was above 10 µM in test [3], above 10 µM in test [4], above 10 µM in test [6] and 3 µM in test [7].
On to `CC(C)(C)NCC(O)COc1cccc2c1CCC(=O)N2` (centres undefined) [CARTEOLOL], for which the AC50 in test [3], in test [4] and in test [7] was above 10 µM throughout.
In the case of `COc1cccc(C2(O)CCCCC2CN(C)C)c1` (centres undefined) [TRAMADOL], the AC50 in test [1] is above 30 µM; in test [6], above 30 µM; in test [2], above 10 µM; in test [8] it was above 30 µM.
As to `NC(=O)CN1CC(O)CC1=O` (centres undefined) [OXIRACETAM], the concentration at half-maximal activity (AC50) in test [3], in test [4], in test [5] and in test [7] was above 30 µM each time.
In the case of `Fc1ccc(C(c2ccccc2)(c2ccccc2F)n2ccnc2)cc1` (centres undefined) [FLUTRIMAZOLE], the AC50 in test [3], in test [4], in test [6] and in test [7] was above 30 µM throughout.

The values are drawn from ChEMBL document CHEMBL5291721, “A preclinical secondary pharmacology resource illuminates target-adverse drug reaction associations of marketed drugs” (Nat Commun, 2023).
